Data published in the supplement of paper PMC10307832.

Tests used:
Assay in all cases: relative viability (nuclei count vs DMSO), 5 days (fraction); higher = more cells survive
[1] = compound: C1=CC(=CC=C1NC(=S)NNC2=C(C=C(C=C2[N+](=O)[O-])C(F)(F)F)[N+](=O)[O-])F [Kobe2602] + CC(C)C[C@H](NC(=O)[C@H](Cc1ccccc1)NC(=O)c1cnccn1)B(O)O [Bortezomib] (partner 0.002 µM)
How it was run: (§1)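 Relative viability was taken as the ratio of nuclei in treated wells to nuclei in vehicle wells. Lung cancer cell lines in 1536-well plates received compounds by pin tool one day after seeding, either one drug alone or a fixed anchor-drug dose plus five library-drug doses (not always all listed) in √10 steps. Nuclei were counted on 4× images after 5 days of treatment, and values are medians of duplicate plates.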

[2] = compound: C1=CC(=CC=C1NC(=S)NNC2=C(C=C(C=C2[N+](=O)[O-])C(F)(F)F)[N+](=O)[O-])F [Kobe2602] + COc1cc2c(Oc3ccc(NC(=O)C4(C(=O)Nc5ccc(F)cc5)CC4)cc3F)ccnc2cc1OCCCN1CCOCC1 [Foretinib] (partner 0.25 µM)
How it was run: as §1

[3] = compound: COc1cc2nccc(Oc3ccc(NC(=O)C4(C(=O)Nc5ccc(F)cc5)CC4)cc3)c2cc1OC [Cabozantinib] + Cc1cc(Nc2cc(N3CCN(C)CC3)nc(Sc3ccc(NC(=O)C4CC4)cc3)n2)n[nH]1 [Tozasertib] (partner 0.1 µM)
How it was run: as §1

[4] = compound: O[C@@H](COc1cccc2ncccc12)CN1CCN([C@@H]2c3ccccc3[C@@H]3[C@H](c4ccccc42)C3(F)F)CC1 [Zosuquidar] + O=C(CCCCCCC(=O)Nc1ccccc1)NO [Vorinostat] (partner 1 µM)
How it was run: as §1

Cell Line	relative viability ([1]; first compound 0.2 µM)	relative viability ([1]; first compound 0.6325 µM)	relative viability ([1]; first compound 2 µM)	relative viability ([1]; first compound 6.325 µM)	relative viability ([1]; first compound 20 µM)	relative viability ([2]; first compound 0.2 µM)	relative viability ([2]; first compound 0.6325 µM)	relative viability ([2]; first compound 2 µM)	relative viability ([2]; first compound 6.325 µM)	relative viability ([2]; first compound 20 µM)	relative viability ([3]; first compound 0.02 µM)	relative viability ([3]; first compound 0.06325 µM)	relative viability ([3]; first compound 0.2 µM)	relative viability ([3]; first compound 0.6325 µM)	relative viability ([3]; first compound 2 µM)	relative viability ([4]; first compound 0.01 µM)	relative viability ([4]; first compound 0.03162 µM)	relative viability ([4]; first compound 0.1 µM)	relative viability ([4]; first compound 0.3162 µM)	relative viability ([4]; first compound 1 µM)
201T	0.956	1.05	1.12	1.18	1.13	1.16	1.17	1.04	0.946	0.93	0.968	1.1	0.916	0.935	0.87	0.886	0.942	0.799	0.997	0.962
A549	–	–	–	–	–	0.955	0.991	0.908	0.924	0.958	–	–	–	–	–	–	–	–	–	–
A-427	0.998	0.991	0.982	0.779	1.07	0.983	1.21	1.06	1.1	1.08	0.316	0.201	0.209	0.213	0.185	0.86	0.853	0.836	0.94	0.511
ABC-1	0.42	0.256	0.283	0.35	0.336	0.957	0.922	–	0.93	1.3	0.194	0.195	0.265	0.194	0.218	1.17	1.04	1	1.13	0.81
BEN	0.908	0.897	0.938	0.821	0.99	0.591	0.706	0.738	0.58	0.768	0.512	0.474	0.507	0.56	0.461	0.548	0.579	0.574	0.662	0.553
CAL-12T	0.997	1.17	0.921	0.931	0.93	1.02	1.02	1.09	1.05	1.06	0.366	0.446	0.369	0.261	0.247	0.843	0.692	0.77	0.813	0.845
COR-L23	0.88	1.04	0.914	1.07	0.92	0.902	0.972	0.966	0.96	0.951	0.235	0.212	0.194	0.145	0.137	0.493	0.515	0.472	0.517	0.509
COR-L 105	0.688	1.14	0.739	0.692	0.746	0.986	1.02	0.867	1.1	0.979	0.397	0.457	–	0.361	0.342	0.961	0.826	0.777	0.891	0.875
Calu-6	1.11	1.04	0.945	0.971	0.951	0.858	0.935	0.894	0.86	0.875	–	–	–	–	–	–	–	–	–	–
ChaGo-K-1	1.04	1.09	0.788	1.06	0.946	0.971	1.03	0.865	0.954	0.838	0.263	0.203	0.234	0.23	0.201	0.741	0.657	0.796	0.781	0.733
EBC-1	0.528	0.479	0.539	0.511	0.612	0.116	0.108	0.113	0.0943	0.111	–	–	–	–	–	–	–	–	–	–
EKVX	1.13	1.08	0.994	1.02	1.1	1.05	0.753	0.7	0.839	1.03	0.422	0.481	0.364	0.394	0.314	0.819	0.736	0.595	0.691	0.656
EMC-BAC-2	1.08	1.17	1.06	1.12	1.12	0.938	1.03	0.99	1.04	1.02	0.292	0.335	0.334	0.284	0.295	0.457	0.438	0.489	0.528	0.258
EPLC-272H	1.03	1.01	0.778	0.866	0.873	0.41	0.937	0.667	0.668	0.796	0.357	0.338	0.204	0.295	0.352	0.464	0.606	0.399	0.503	0.74
H3255	0.691	0.782	0.743	0.818	0.766	0.946	0.834	0.784	0.882	0.944	0.605	1.34	–	0.471	0.775	0.787	0.837	0.613	0.824	0.756
HARA	1.17	1.1	0.994	1.14	1.12	0.996	0.795	0.893	0.856	0.892	0.132	0.113	0.116	0.129	0.107	0.657	0.526	0.606	0.556	0.459
HCC-15	0.959	1.1	0.964	0.994	1.03	0.979	1.09	0.974	1.09	0.974	0.462	0.432	0.437	0.44	0.267	0.844	0.745	0.716	0.894	0.877
HCC-44	0.882	0.897	0.826	0.905	0.813	–	–	–	–	–	–	1.27	0.979	1	0.758	1.1	1.18	1.18	1.12	1.05
HCC-78	0.543	0.574	0.446	0.244	0.57	0.628	0.541	0.669	0.575	0.577	–	0.414	0.445	0.367	0.311	0.465	–	–	0.512	0.402
HCC-366	1.13	1.01	1.01	1.07	1.12	0.945	0.969	0.966	0.919	0.959	0.705	0.108	0.101	0.065	0.0583	0.309	0.424	0.342	0.897	0.352

Cell Line	relative viability ([1]; first compound 0.2 µM)	relative viability ([1]; first compound 0.6325 µM)	relative viability ([1]; first compound 2 µM)	relative viability ([1]; first compound 6.325 µM)	relative viability ([1]; first compound 20 µM)	relative viability ([2]; first compound 0.2 µM)	relative viability ([2]; first compound 0.6325 µM)	relative viability ([2]; first compound 2 µM)	relative viability ([2]; first compound 6.325 µM)	relative viability ([2]; first compound 20 µM)	relative viability ([3]; first compound 0.02 µM)	relative viability ([3]; first compound 0.06325 µM)	relative viability ([3]; first compound 0.2 µM)	relative viability ([3]; first compound 0.6325 µM)	relative viability ([3]; first compound 2 µM)	relative viability ([4]; first compound 0.01 µM)	relative viability ([4]; first compound 0.03162 µM)	relative viability ([4]; first compound 0.1 µM)	relative viability ([4]; first compound 0.3162 µM)	relative viability ([4]; first compound 1 µM)
HCC-827	1.09	1.15	0.965	1.01	1.08	0.999	1.11	1.03	1.04	1.1	0.456	0.481	–	0.436	0.414	0.761	0.786	0.714	0.849	0.999
HOP-62	0.875	1.15	0.508	0.75	0.818	1.08	1.16	1.18	1.1	1.08	0.398	0.388	0.378	0.376	0.346	0.528	0.624	0.585	0.836	0.593
IA-LM	–	0.873	0.707	0.765	0.759	1.09	1.01	0.953	1.24	1.01	–	–	–	–	–	1.07	0.967	–	1.07	1.04
LC-2-ad	0.946	1	0.941	1.02	0.993	0.94	0.946	0.932	1.03	0.996	–	0.454	0.46	0.456	0.392	0.681	0.774	0.722	0.683	0.674
LK-2	–	–	–	–	–	1.48	1.74	1.28	1.14	1.41	–	0.169	–	0.18	0.175	0.232	0.311	0.283	0.298	0.335
NCI-H358	–	–	–	–	–	0.721	0.756	0.605	0.698	0.845	0.106	0.0894	0.103	0.0924	0.108	0.662	0.8	0.634	0.646	0.639
NCI-H522	–	–	–	–	–	–	–	–	–	–	0.612	0.535	0.502	0.614	0.511	0.909	0.796	0.927	0.887	0.871
NCI-H1299	1.01	0.982	0.986	1.07	0.995	1.06	1.09	1.05	1.13	1.03	–	–	–	–	–	–	–	–	–	–
NCI-H1395	–	–	–	–	–	0.935	0.976	0.976	0.991	1.12	0.796	0.779	0.794	0.756	0.719	0.746	0.783	–	1	0.698
NCI-H1563	0.954	1.13	0.71	0.933	0.794	0.996	0.928	0.964	1.02	0.996	–	–	–	–	–	–	–	–	–	–
NCI-H1623	–	–	–	–	–	0.966	0.954	0.79	0.809	0.854	0.4	0.42	0.427	0.443	0.455	–	–	–	–	–
NCI-H1648	–	–	–	–	–	–	–	–	–	–	0.704	0.658	0.51	0.59	0.385	0.423	0.422	0.242	0.387	0.434
NCI-H1703	0.371	0.379	0.286	0.367	0.342	0.404	0.349	0.4	0.321	0.329	–	–	–	–	–	–	–	–	–	–
NCI-H1792	0.965	0.901	1.09	0.985	0.986	–	–	–	–	–	–	–	–	–	–	–	–	–	–	–
NCI-H1793	–	–	–	–	–	0.847	0.803	0.684	0.728	0.863	0.663	0.427	0.271	0.257	0.169	0.745	–	–	1.06	0.629
NCI-H1944	–	–	–	–	–	0.891	0.91	0.847	0.885	0.976	0.275	0.274	0.238	0.257	0.238	0.524	0.528	0.543	0.672	0.535
NCI-H2170	–	–	–	–	–	0.966	1.04	1.01	1.01	0.963	0.738	0.8	0.733	0.748	0.734	0.828	0.784	0.763	0.844	0.826
NCI-H2342	–	–	–	–	–	1.08	1.16	0.968	0.991	1.23	0.656	0.516	0.553	0.478	0.401	0.753	0.807	0.686	0.813	0.81
SK-MES-1	–	–	–	–	–	0.922	0.99	0.918	0.99	0.898	1.09	0.991	0.999	0.927	0.753	1.03	1.06	0.929	1.13	1.18
SW 900	–	–	–	–	–	0.979	0.926	0.821	0.854	0.993	0.551	0.481	0.814	0.464	0.299	0.431	0.464	–	0.567	0.527
